The record followed here is PMC5295233, “Biochemical and Structural Insights into a Novel Thermostable β-1,3-Galactosidase from Marinomonas sp. BSi20414” (Marine Drugs, 2017).

This test deals with T1, MaBGA (β-galactosidase from Marinomonas sp. BSi20414).
T1 construct: native enzyme purified from the wild-type strain (ammonium sulfate, HiTrap DEAE FF); GH42; catalytic Glu142 and Glu314; no tag
Nature of the test: release of o-nitrophenol at […] nm, nonlinear Michaelis-Menten fit. Conditions: apparent Km; 50 mM PBS pH 7.0 (standard assay); ONPG 0.1-19 mM; temperature not given. It counts as biochemical.

Usually Km stands for the substrate concentration at which the rate is half of its maximum. As to `O=[N+]([O-])c1ccccc1O[C@@H]1O[C@H](CO)[C@H](O)[C@H](O)[C@H]1O` [ONPG, o-nitrophenyl-β-D-galactopyranoside], the Km stood at 14.2 mM.
